Tests used:
VCAM-1 [1] = experiment: Immunohistochemical analysis of VCAM-1 in transplanted hearts; assay type: in vivo, rat; conditions: heart allograft, day 120
Method: (§1) 3-Deazaadenosine was orally administered by mixing into the regular food at a final concentration of 0.04 mg/g, according to a daily oral dose of 10 mg/kg c3Ado per animal, in addition to or in absence of cyclosporine (0.2 mg/kg body weight) to Lewis rats which received heterotopically transplanted hearts from Fisher rats. For a third control group, only cyclosporine was administered daily to the other allograft recipients. All animals got a standard diet over the whole study period. Allografts were harvested on day 120, cardiac graft beat was assessed by daily palpation, and the complete cessation of the graft beat was interpreted as rejection. All of the rats accepted cardiac allografts without any further treatment for the duration of observation.
(§2) For immunohistochemical analysis of VCAM-1 and ICAM-1. two complete transverse sections of the transplanted heart approximately 3 mm in thickness were obtained and stored in optimum cutting temperature compound. Serial sections were cut and dipped in cold acetone for 10 minutes. The staining procedures were performed as described previously. The expression of the adhesion molecules was scored on the basis of endothelial cells and smooth muscle cells of epicardial arteries and intramyocardial aterioles. Analysis was done semiquantitatively by scoring the intensity of the staining and counting of the number of stained cells.

[2] = target: adenosylhomocysteine hydrolase (Homo sapiens, UniProt P23526); conditions: cited from earlier work
Sequence of adenosylhomocysteine hydrolase (P23526 whole entry): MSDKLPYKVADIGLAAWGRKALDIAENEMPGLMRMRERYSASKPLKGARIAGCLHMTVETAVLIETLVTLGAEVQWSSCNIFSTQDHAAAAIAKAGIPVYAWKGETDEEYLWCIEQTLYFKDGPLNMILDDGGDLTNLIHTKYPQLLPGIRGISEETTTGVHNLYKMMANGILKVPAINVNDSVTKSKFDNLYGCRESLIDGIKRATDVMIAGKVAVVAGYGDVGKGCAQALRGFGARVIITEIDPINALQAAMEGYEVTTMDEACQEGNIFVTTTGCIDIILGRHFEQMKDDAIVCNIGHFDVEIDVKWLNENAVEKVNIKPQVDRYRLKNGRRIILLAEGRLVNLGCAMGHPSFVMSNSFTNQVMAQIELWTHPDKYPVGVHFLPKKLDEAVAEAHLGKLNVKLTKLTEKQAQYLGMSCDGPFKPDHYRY

[3] = system: Lewis rats which received heterotopically transplanted hearts from Fisher rats; experiment: Graft vasculopathy / graft atherosclerosis (intimal thickening) in transplanted hearts; assay type: in vivo, rat; conditions: after 120 days
Method: as §1
Every complete cross-section of the traceable arteries was calculated. The sections were reviewed by two independent reviewers masked to the status of the slides, and histologic changes were assessed semiquantitatively. The changes of intimal thickening were scored as mild (score 1, <25% occlusion of the lumen) when the intima was readily discernible, or as moderate (score 2, 25-50% occlusion) to severe (score 3, >50% occlusion).

ICAM-1 [4] = experiment: Immunohistochemical staining of ICAM-1 in ascending aorta (APAAP method); assay type: in vivo, mouse; conditions: for Endothelial expression of ICAM-1 in the aorta (words): mice on atherogenic diet treated with c^3Ado, FIG. 4
Method: (§3) Serial cryostate sections (8 μm) from the following 3 parts of the ascending aorta were chosen: 8-32 μm, 120-144 μm and 240-264 μm distal to the aortic sinus. The frozen sections were fixed in ice-cold acetone and dried for 10 minutes. Sections were then incubated for 10 minutes in a 1:1000 dilution of mouse serum (Sigma, St. Louis, Mo., USA). After rinsing with RPMI 1640 (Life Technologies, Paisley, Scotland), the sections were incubated for 40 minutes at room temperature with a 1:100 dilution of a monoclonal rat anti-mouse antibody against ICAM-1 (CF54) or VCAM-1 (CD106, Dianova GmbH, Hamburg, Germany). Detection of monocytes/macropheges was performed using monoclonal rat anti-mouse antibody CD11 b (MAC-1) (Serotec Ltd., Oxford, England).
(§4) After additional washing steps with TRIS buffer (USB, Cleveland, Ohio, USA) and incubation with a secondary antibody (AffiniPureMouse anti-ret IgG, Dianova, Germany) (1:400) for 10 minutes, followed by incubation with a linking antibody (Dualsystem-Brückenantikörper; Dianova, Hamburg, Germany) (1:600) for 10 minutes, the sections were incubated with an alkaline phosphatase anti-alkaline phosphatese complex (APAPP) (1:50; Dianova, Hamburg, Germany) for 30 minutes. The development of the sections was performed in neufuchsin developer solution. Sections were finally counterstained with hemalaun (Merck, Darmstadt, Germany) for 10 seconds. Control sections were treated with linking secondary antibody and APAAP complex only.
(§5) The intensity of staining with ICAM-1 and VCAM-1 was scored from 1 to 4 as follows: score 1=no staining, score 2=weak staining, score 3=moderate staining and score 4=strong staining of the vascular cells. The number of CD11b-positive cells was counted in each section, and the localization of the cells was classified as adherent to the wall, or localized in the intima or in the media.

ICAM-1 [5] = experiment: Immunohistochemical analysis of ICAM-1 in transplanted hearts; assay type: in vivo, rat; conditions: heart allograft, day 120
Method: as §1, §2

[6] = system: Lewis rats which received heterotopically transplanted hearts from Fisher rats; experiment: Heterotopic heart allograft survival and rejection (Fisher to Lewis rats); assay type: in vivo, rat
Method: as §1, with “rejection.” for “rejection. All of the rats accepted cardiac allografts without any further treatment for the duration of observation.”

VCAM-1 [7] = experiment: Immunohistochemical staining of VCAM-1 in ascending aorta (APAAP method); assay type: in vivo, mouse; conditions: for Endothelial expression of VCAM-1 in the aorta (words): mice on atherogenic diet treated with c^3Ado, FIG. 4
Method: as §3, §4, §5

female C57BL/J6 mice = experiment: Quantification of atherosclerotic lesions and neointimal proliferation in the ascending aorta of mice on atherogenic diet; assay type: in vivo, mouse; conditions: for NI/M Ratio (neointimal to medial area ratio): mean ± SEM, 3 sections per animal
From the text: (§6) Six to eight week old female C57BL/J6 mice (Charles Rivers Wiga, Sulzfeld, Germany) with an average body weight of 20 g were randomly divided into three groups:
Group 1: control animals (n=9) maintained on a normal mouse diet (Altromin, Standard Diet; Lage, Germany).
Group 2: nine animals receiving an atherogenic diet based on normal mouse chow but differing in total fat content (10% vs. 5%), protein content (15.4% vs. 22%) and cholesterol content (1% vs. 0%). The total energy was 3790 vs. 3000 kcal/kg.
Group 3: nine animals on an atherogenic diet as described above, and 3-deazaadenosine (c^3Ado) (Southern Research, Birmingham, Ala., USA) mixed into the food at a final concentration of 0.04 mg/g, according to a daily oral dose of 10 mg/kg c^3Ado per animal.
(§7) The average intake of food for each animal was 5.2 g per day. Food and water were replenished every 2 days, and the volumes consumed for each cage were recorded. The mice were kept in accordance with standard animal care requirements and were maintained on a 12 hour light-dark cycle with autoclaved water in a temperature-controlled environment. All animals remained healthy during the experimental period. After 9 weeks, mice were sacrificed by inhalation of trichlormethane. The heart and the ascending aorta were removed and rinsed with PBS DULBECCO'S (Life Technologies, Paisley, Scotland). The lower half of the heart was transected along a line between the tips of the atria to obtain a base for the emerging ascending aorta. This procedure allowed an exact vertical embedding of the aorta in Tissue-Tek (Miles, USA) for optimal plane cross sections. The sections were frozen in liquid nitrogen and stored at −80° C. until further study.
A modification of the method described by Paigen at el. (29) was used to evaluate aortic lesion formation. The frozen tissue blocks were placed on a cryotome, and 8 μm serial sections of the ascending aorta were collected on coated glass slides until we were able to locate the most cranial portion of the aortic sinus by examining unstained sections. Once this section (No.1) was identified, the cranial 35 sections, covering 280 μm of the ascending aorta, were placed on separate slides for further evaluation. Every fifth section of the first 280 μm of the ascending aorta was stained with oil red O (Riedel de Haen, Germany) and counterstained with hemalaun (Merck, Darmstadt, Germany) end elastic van Gieson (Chrome-Gesellsohaft, Schmid GmbH, Köngen, Germany). Lesion area as well as intimal and medial area were blindly determined using a video-computer aided microscopy planimetry system (Zeiss, Oberkochen, Germany; Video Camera 3 CCD,
Sony; 40× lens magnification; IBAS-2 with IBAS Version 2.0 Standard, Kontron, München, Germany).
The number of lesions was counted as described previously by reviewing every fifth section. […] The number of lesions in each cross section was also counted. Size of the lesions was determined as length of lesion along the luminal aortic perimeter which was related to the total luminal aortic perimeter in the section.
The extent of neointimal proliferation was quantified by measuring the area (μm^2) of the neointima and the media in each ascending aorta from 3 sections (No.10, 20 and 30). In each section four sectors (at 0°, 90°; 180° and 270°) of the vessel wall were analyzed in a defined window of 63 μm×63 μm to measure neointimal area enclosed by the endothelial layer and internal elastic lamina and external elastic lamina. Ratio of neointimal to medial are ratio (NI/M) was averaged for each animal.

Body weight development = assay type: in vivo, mouse; conditions: day 65, atherogenic diet + c^3Ado 10 mg/kg/day oral, mean ± SEM, n = 9
Method: as §6, §7

[8] = Total plasma cholesterol levels (CHOD-PAP method); assay type: in vivo, mouse; conditions: atherogenic diet + c^3Ado 10 mg/kg/day oral, mean ± SEM
Method: Blood was collected via the tail vein from all mice after overnight fasting prior to initiation of the experiment, after 35 days feeding the different diets, and at time of death. Total plasma cholesterol levels were determined using the CHOD-PAP method (Boehringer Mannheim, Germany) as described previously (32).

endothelial cells = conditions: in vitro, via selective inhibition of ICAM-1 synthesis; cited from earlier work
monocyte = conditions: cited from earlier work
CD11b-positive monocytes = experiment: Counting of CD11b-positive monocytes in aortic sections; assay type: in vivo, mouse
Method: as §3, §4, §5

[9] = score 1 = no staining to 4 = strong staining, endothelial, ascending aorta, 9 weeks, mean ± SEM
[10] = mean ± SEM out of 3 sections per animal, 9 weeks atherogenic diet + c^3Ado
[11] = group 3, atherogenic diet + c^3Ado

Nc1nccc2c1ncn2[C@@H]1O[C@H](CO)[C@@H](O)[C@H]1O [c^3Ado, 3-deazaadenosine]
VCAM-1 expression in the neointima of transplanted hearts (VCAM-1 [1]): almost no expression | Effect on adenosylhomocysteine hydrolase [2]: suppresses | Intimal thickening of intramyocardial and epicardial arteries [3]: almost no arterial intimal thickening | Endothelial expression of ICAM-1 in the aorta (words) (ICAM-1 [4]): completely absent | Endothelial expression of ICAM-1 in the aorta (words) (ICAM-1 [4]; listed as 3-deazaadenosine): no endothelial expression | ICAM-1 expression score (ICAM-1 [4]; [9]): 1.0 ± 0 | ICAM-1 expression in the neointima of transplanted hearts (ICAM-1 [5]): almost no expression | Complications as a result of therapy ([6]; 10 mg/kg/day oral, 120 days): No complications | Graft survival (graft beat) ([6]; daily palpation, observation 120 days): kept beating for the duration of observation | Graft rejection ([6]; heart allograft, 120 days): completely free from rejection | Endothelial expression of VCAM-1 in the aorta (words) (VCAM-1 [7]): completely absent | Endothelial expression of VCAM-1 in the aorta (words) (VCAM-1 [7]; listed as 3-deazaadenosine): no endothelial expression | VCAM-1 expression score (VCAM-1 [7]; [9]): 1.0 ± 0 | Number of lesions (female C57BL/J6 mice; fatty streak lesions, mean ± SEM from 7 sections per animal): 0 ± 0 | Neointima in aortic cross sections (female C57BL/J6 mice; light micrographs, 200 μm cranial to aortic valve, FIG. 3): absent | Medial Area (female C57BL/J6 mice; [10]): 62.7 ± 2.5 × × 10^3 μm^2 | Neointimal area (female C57BL/J6 mice; [10]): 0.13 ± 0.03 × × 10^3 μm^2 | NI/M Ratio (neointimal to medial area ratio) (female C57BL/J6 mice; 9 weeks atherogenic diet + c^3Ado): 0.002 ± 0.0004 | NI/M Ratio (neointimal to medial area ratio) (female C57BL/J6 mice; 9 weeks atherogenic diet + c^3Ado, listed as c^aAdo): 0.002±0.0004 | Fatty streak lesions in sections of the ascending aorta (female C57BL/J6 mice; oil red O staining, 7 frozen sections per animal): no detectable lesions | Neointimal area (female C57BL/J6 mice; proximal ascending aorta, planimetric analysis, atherogenic diet + c^3Ado, p<0.001): 125±32 μm^2 | Neointimal thickness as NI/M, lower than in mice on atherogenic diet without c^3Ado (female C57BL/J6 mice; vs atherogenic diet alone, p<0.001): 94% | Body weight day 65 (Body weight development): 25.3 ± 0.2 g | Total cholesterol day 35 ([8]; day 35, plasma): 410 ± 19 mg/dL | Total cholesterol day 65 ([8]; day 65, plasma): 475 ± 10 mg/dL | Tumor necrosis factor-a-induced macrophage adhesion to endothelial cells (endothelial cells): reduces | Monocyte chemotaxis and phagocytosis (monocyte): inhibit | Adherent CD11b-positive cells on the luminal surface (CD11b-positive monocytes; [11]): only a few adherent CD11b-positive cells | CD11b-positive monocytic cells within the intima (CD11b-positive monocytes; [11]): no monocytic cells within the intima | Amount of intimal monocytes (first column of this head) (CD11b-positive monocytes; mean ± SEM per section, 3 defined sections per animal, first of two columns with the same head (title: endothelial monocytes)): 0.5 ± 0.2 | Amount of intimal monocytes (second column of this head) (CD11b-positive monocytes; mean ± SEM per section, 3 defined sections per animal, second of two columns with the same head): 0 ± 0

Source: patent US8158142B2, “3-deazaadenosine prevents atherosclerosis and graft vasculopathy” (Kerckhoff-Klinik Gesellschaft mit beschrankter Haftung, priority 1998, dated 2012)
